Results reported in ChEMBL document CHEMBL3046462, “Synthesis and anti-bacterial activities of some novel pyrazolobenzothiazine-based chalcones and their pyrimidine derivatives” (2012).

How the values were obtained:
Format in all cases: functional
Escherichia coli [1] = assay: Antibacterial activity against Escherichia coli X580 at 2 mg/ml after overnight incubation by hole plate method; conditions: read-out: DIZ
Escherichia coli [2] = assay: Antibacterial activity against Escherichia coli X580 at 2 mg/ml after overnight incubation by hole plate method relative to cephalosporin C
Staphylococcus aureus [3] = assay: Antibacterial activity against Staphylococcus aureus NCTC 6571 at 2 mg/ml after overnight incubation by hole plate method relative to cephalosporin C
Staphylococcus aureus [4] = assay: Antibacterial activity against Staphylococcus aureus NCTC 6571 at 2 mg/ml after overnight incubation by hole plate method; conditions: read-out: DIZ

SMILES	zone of inhibition at 2000 µg/mL (Escherichia coli [1])	fold change (FC) (Escherichia coli [2])	fold change (FC) (Staphylococcus aureus [3])	zone of inhibition at 2000 µg/mL (Staphylococcus aureus [4])
Cc1ccc(C(=O)/C=C/c2ccc(-n3nc4c(c3C)N(C)S(=O)(=O)c3ccccc3-4)cc2)cc1	13 mm	3.55	–	–
Cc1c2c(nn1-c1ccc(C(=O)/C=C/c3ccc(F)cc3)cc1)-c1ccccc1S(=O)(=O)N2C	14 mm	4.13	–	–
COc1ccc(-c2cc(-c3ccc(-n4nc5c(c4C)N(C)S(=O)(=O)c4ccccc4-5)cc3)nc(N)n2)cc1OC	14 mm	4.13	–	–
Cc1c2c(nn1-c1ccc(C(=O)/C=C/c3cccc(Br)c3)cc1)-c1ccccc1S(=O)(=O)N2C	17 mm	6.53	–	–
Cc1cc(C)c(-c2cc(-c3ccc(-n4nc5c(c4C)N(C)S(=O)(=O)c4ccccc4-5)cc3)nc(N)n2)c(C)c1	15 mm	4.81	–	–
Cc1ccc(-c2cc(-c3ccc(-n4nc5c(c4C)N(C)S(=O)(=O)c4ccccc4-5)cc3)nc(N)n2)cc1	14 mm	4.13	–	–
Cc1c2c(nn1-c1ccc(C(=O)/C=C/c3ccc(Cl)cc3Cl)cc1)-c1ccccc1S(=O)(=O)N2C	16 mm	5.61	–	–
Cc1c2c(nn1-c1ccc(-c3cc(-c4ccc(F)cc4)nc(N)n3)cc1)-c1ccccc1S(=O)(=O)N2C	15 mm	4.81	–	–
Cc1c2c(nn1-c1ccc(-c3cc(-c4ccc(Cl)cc4)nc(N)n3)cc1)-c1ccccc1S(=O)(=O)N2C	16 mm	5.61	–	–
Cc1c2c(nn1-c1ccc(C(=O)/C=C/c3cccc(Cl)c3)cc1)-c1ccccc1S(=O)(=O)N2C	15 mm	4.81	–	–
Cc1c2c(nn1-c1ccc(-c3cc(-c4cccc(Cl)c4)nc(N)n3)cc1)-c1ccccc1S(=O)(=O)N2C	16 mm	5.61	–	–
Cc1c2c(nn1-c1ccc(C(=O)/C=C/c3ccc(Cl)cc3)cc1)-c1ccccc1S(=O)(=O)N2C	13 mm	3.55	–	–
Cc1c2c(nn1-c1ccc(/C=C/C(=O)c3ccc(Cl)cc3)cc1)-c1ccccc1S(=O)(=O)N2C	14 mm	4.13	–	–
COc1ccc(-c2cc(-c3ccc(-n4nc5c(c4C)N(C)S(=O)(=O)c4ccccc4-5)cc3)nc(N)n2)c(OC)c1OC	24 mm	19.06	–	–
Cc1c2c(nn1-c1ccc(C(=O)/C=C/c3ccc([N+](=O)[O-])cc3)cc1)-c1ccccc1S(=O)(=O)N2C	15 mm	4.81	–	–
Cc1c2c(nn1-c1ccc(C(=O)/C=C/c3ccc(Br)cc3)cc1)-c1ccccc1S(=O)(=O)N2C	15 mm	4.81	–	–
COc1ccc(/C=C/C(=O)c2ccc(-n3nc4c(c3C)N(C)S(=O)(=O)c3ccccc3-4)cc2)c(OC)c1OC	14 mm	4.13	–	–
Cc1c2c(nn1-c1ccc(-c3cc(-c4ccc(Br)cc4)nc(N)n3)cc1)-c1ccccc1S(=O)(=O)N2C	19 mm	8.87	508	17 mm
COc1ccccc1-c1cc(-c2ccc(-n3nc4c(c3C)N(C)S(=O)(=O)c3ccccc3-4)cc2)nc(N)n1	20 mm	10.34	1390	22 mm
Cc1c2c(nn1-c1ccc(-c3cc(-c4ccccc4)nc(N)n3)cc1)-c1ccccc1S(=O)(=O)N2C	14 mm	4.13	–	–
Cc1c2c(nn1-c1ccc(/C=C/C(=O)c3ccc(Br)cc3)cc1)-c1ccccc1S(=O)(=O)N2C	16 mm	5.61	–	–
COc1ccc(/C=C/C(=O)c2ccc(-n3nc4c(c3C)N(C)S(=O)(=O)c3ccccc3-4)cc2)cc1OC	15 mm	4.81	–	–
Cc1c2c(nn1-c1ccc(-c3cc(-c4ccc([N+](=O)[O-])cc4)nc(N)n3)cc1)-c1ccccc1S(=O)(=O)N2C	14 mm	4.13	–	–
COc1cc(-c2cc(-c3ccc(-n4nc5c(c4C)N(C)S(=O)(=O)c4ccccc4-5)cc3)nc(N)n2)cc(OC)c1OC	13 mm	3.55	–	–
Cc1cc(C)c(C(=O)/C=C/c2ccc(-n3nc4c(c3C)N(C)S(=O)(=O)c3ccccc3-4)cc2)c(C)c1	15 mm	4.81	–	–
COc1ccc(C(=O)/C=C/c2ccc(-n3nc4c(c3C)N(C)S(=O)(=O)c3ccccc3-4)cc2)cc1	15 mm	4.81	–	–
Cc1c2c(nn1-c1ccc(-c3cc(-c4cccc(Br)c4)nc(N)n3)cc1)-c1ccccc1S(=O)(=O)N2C	14 mm	4.13	–	–
COc1ccccc1/C=C/C(=O)c1ccc(-n2nc3c(c2C)N(C)S(=O)(=O)c2ccccc2-3)cc1	16 mm	5.61	–	–
